These are literature values, as cited in patent US8759216B2, “Compositions and methods for polishing silicon nitride materials” (Cabot Microelectronics Corporation, priority 2006, dated 2014).

In general, pKa refers to the pH at which an ionisable group is half protonated.

Structures are written as SMILES. Like-named read-outs stand apart in the source and are kept apart here.

For `OP(O)O` [phosphorous, phosphorous acid], the pKa is 2.00 (first listed pKa value) and 6.59 (second listed pKa value).
For `O=C(O)c1ccccc1C(=O)O` [phthalic, phthalic acid], the pKa is 2.89 (first listed pKa value) and 5.51 (second listed pKa value).
As to `O=C(O)CCCC(=O)O` [glutaric], the pKa was 4.34 (first listed pKa value) and 5.41 (second listed pKa value).
